# Test results as given in patent publication US20250049926A1, “PHARMACEUTICAL COMPOSITIONS COMPRISING MODIFIED BETACYCLODEXTRINS” (priority 2021, published 2025).
# Experiments:
# [1] = Formulation stability with SBE-beta-CD (assay and impurities by HPLC, stressed storage); assay type: physicochemical
# Procedure: 500 mL batches of each formulation (target pH 4.0 and pH 5.5) are prepared according to the recipe in Table 2 below. The vials used were 50 mL 20 mm Crown, type I, Vial (Gerresheimer), part number 80018303030. The stoppers used were 20 mm S10-F451 Stopper 4432/50 Gray, (Flurotec™ On Plug Only) B2-40 Coating Westar RS part number 19700021.
# Each formulation is filtered with a 0.22 μm nylon syringe filter. Vials are filled with 10 mL of formulation, stoppered, sealed and placed at 40° C./75% relative humidity (RH) or at 60° C. (uncontrolled humidity) for up to 14 days. Each vial is placed inverted so that maximum stopper contact with the solution during the stability conditions can be achieved. At each time-point, vials from both conditions and formulations are pulled and analyzed for assay and impurities.
# The assay and impurities as measured using the same HPLC method as used for assessing solubility.
# Log P of free base = assay type: physicochemical
# Procedure: The compound of formula (I) as a free base compound has a quite strong lipophilic behavior (Log P 4.13). […] Taking into account these characteristics, and based on pH requirements for intravenous (IV) solutions which is generally set ≥4.0, solubility studies were carried out to identify solubilizers able to substantially increase the aqueous solubility of the compound of formula (I).
# [2] = Formulation pH 4.0 (2 mg/mL, SBE-beta-CD 40 mg/mL), 40° C./75% RH, time zero, pH exp 4.1
# [3] = Formulation pH 4.0, 40° C./75% RH, Day 1, pH exp 4.1
# [4] = Formulation pH 4.0, 40° C./75% RH, Day 3, pH exp 4.0
# [5] = Formulation pH 4.0, 40° C./75% RH, Day 7, pH exp 4.1
# [6] = Formulation pH 4.0, 40° C./75% RH, Day 14, pH exp 4.1
# [7] = Formulation pH 4.0, 60° C., Day 1, pH exp 4.1
# [8] = Formulation pH 4.0, 60° C., Day 3, pH exp 4.1
# [9] = Formulation pH 4.0, 60° C., Day 7, pH exp 4.1
# [10] = Formulation pH 4.0, 60° C., Day 14, pH exp 4.1
# [11] = Formulation pH 4.0, 60° C., time zero, pH exp 4.1
# [12] = Formulation pH 5.5 (2 mg/mL, SBE-beta-CD 40 mg/mL), 40° C./75% RH, time zero, pH exp 5.6
# [13] = Formulation pH 5.5, 40° C./75% RH, Day 1, pH exp 5.6
# [14] = Formulation pH 5.5, 40° C./75% RH, Day 3, pH exp 5.6
# [15] = Formulation pH 5.5, 40° C./75% RH, Day 7, pH exp 5.7
# [16] = Formulation pH 5.5, 40° C./75% RH, Day 14, pH exp 5.6
# [17] = Formulation pH 5.5, 60° C., Day 1, pH exp 5.6
# [18] = Formulation pH 5.5, 60° C., Day 3, pH exp 5.6
# [19] = Formulation pH 5.5, 60° C., Day 7, pH exp 5.7
# [20] = Formulation pH 5.5, 60° C., Day 14, pH exp 5.7
# [21] = Formulation pH 5.5, 60° C., time zero, pH exp 5.6
smiles,measurement,setting,value
COc1cc(N2CCNCC2)ccc1Nc1ncc2c(n1)-n1ccc(C(=O)Nc3c(C)cccc3C)c1CC2 [compound of formula (I)],stability of formulation with SBE-beta-CD,"[1]; 60° C. stressed conditions, formulation at pH 5.5 compared to pH 4.0",lower impurities and lower loss of assay
same,Assay (% of theoretical value of compound of formula (I)),[1]; [2],96.8%
same,Total impurities,[1]; [2],1.1 % area
same,Assay (% of theoretical value of compound of formula (I)),[1]; [3],98.1%
same,Total impurities,[1]; [3],1.1 % area
same,Assay (% of theoretical value of compound of formula (I)),[1]; [4],98.7%
same,Total impurities,[1]; [4],1.3 % area
same,Assay (% of theoretical value of compound of formula (I)),[1]; [5],103.1%
same,Total impurities,[1]; [5],1.3 % area
same,Assay (% of theoretical value of compound of formula (I)),[1]; [6],97.7%
same,Total impurities,[1]; [6],1.4 % area
same,Assay (% of theoretical value of compound of formula (I)),[1]; [7],97.9%
same,Total impurities,[1]; [7],1.4 % area
same,Assay (% of theoretical value of compound of formula (I)),[1]; [8],98.3%
same,Total impurities,[1]; [8],2.0 % area
same,Assay (% of theoretical value of compound of formula (I)),[1]; [9],97.9%
same,Total impurities,[1]; [9],3.4 % area
same,Assay (% of theoretical value of compound of formula (I)),[1]; [10],87.0%
same,Total impurities,[1]; [10],4.7 % area
same,Assay (% of theoretical value of compound of formula (I)),[1]; [11],96.8%
same,Total impurities,[1]; [11],1.1 % area
same,Assay (% of theoretical value of compound of formula (I)),[1]; [12],99.0%
same,Total impurities,[1]; [12],1.1 % area
same,Assay (% of theoretical value of compound of formula (I)),[1]; [13],97.9%
same,Total impurities,[1]; [13],1.2 % area
same,Assay (% of theoretical value of compound of formula (I)),[1]; [14],100.6%
same,Total impurities,[1]; [14],1.3 % area
same,Assay (% of theoretical value of compound of formula (I)),[1]; [15],100.1%
same,Total impurities,[1]; [15],1.2 % area
same,Assay (% of theoretical value of compound of formula (I)),[1]; [16],94.7%
same,Total impurities,[1]; [16],1.3 % area
same,Assay (% of theoretical value of compound of formula (I)),[1]; [17],97.9%
same,Total impurities,[1]; [17],1.3 % area
same,Assay (% of theoretical value of compound of formula (I)),[1]; [18],100.6%
same,Total impurities,[1]; [18],1.5 % area
same,Assay (% of theoretical value of compound of formula (I)),[1]; [19],100.1%
same,Total impurities,[1]; [19],2.0 % area
same,Assay (% of theoretical value of compound of formula (I)),[1]; [20],97.7%
same,Total impurities,[1]; [20],3.0 % area
same,Assay (% of theoretical value of compound of formula (I)),[1]; [21],99.0%
same,Total impurities,[1]; [21],1.1 % area
same,stability of formulation with SBE-beta-CD,[1]; pH 4.0 versus pH 5.5 at 40° C./75% RH stressed conditions,similar
same,logP,Log P of free base,4.13
